pIC50: −log10 of the molar value.
Tests used:
human PIM2 kinase = molecular target: T1, human PIM2 kinase (Homo sapiens, UniProt Q9P1W9); test: Human Pim2 kinase in vitro inhibition assay (Cerep, LANCE/FRET); type: biochemical
T1 construct: purchased Cerep (CRO that ran the assay) 2920 (745-P2); host or cells: insect cells
Excerpt: (§1) Rucaparib, veliparib and olaparib were purchased from Selleckchem. Kinase in vitro assays were perfomed at Cerep (www.cerep.fr) by measuring the phosphorylation of appropriate peptide substrates by human recombinant enzymes and using FRET as a detection method (a detailed description of each kinase assay is available in online supplementary data).
Human Pim1 and Pim2 kinase in vitro inhibition assays
All details for the Pim1 and Pim2 in vitro assays can be consulted in the Cerep […]
http://www.cerep.fr/cerep/users/pages/catalog/Affiche_CondExp_Test.asp?test=2919, http://www.cerep.fr/cerep/users/pages/catalog/Affiche_CondExp_Test.asp?test=2920.
Evaluation of the effects of compounds on the activity of the human Pim1 and Pim2 kinases were quantified by measuring the phosphorylation of the substrate Ulight- […]
([…]) and ATP (30 µM for Pim1 and 3 µM for Pim2), and the mixture is incubated for 60 min at room temperature. […] After 60 more min, the fluorescence transfer is measured at λex=337 nm, λem=620 nm and λem=665 nm using a microplate reader (Envision, Perkin Elmer).
The enzyme activity is determined by dividing the signal measured at λem=665 nm by that measured at λem=620 nm (ratio). The results are expressed as a percent inhibition of the control enzyme activity. […]

human HIPK2 kinase = molecular target: T2, human HIPK2 kinase (Homo sapiens, UniProt Q9H2X6); test: Human HIPK2 kinase in vitro inhibition assay (Cerep, LANCE); type: biochemical; conditions: human recombinant enzyme, 10 µM ATP
T2 construct: purchased Cerep (CRO that ran the assay) 2915 (781-H2)
Excerpt: as §1
Human HIPK2 kinase in vitro inhibition assay
All details for the HIPK2 in vitro assay can be consulted in the Cerep Catalogue available online under references 2915 (781-H2): http://www.cerep.fr/cerep/users/pages/catalog/Affiche_CondExp_Test.asp?test=2915 Evaluation of the effects of compounds on the activity of the human HIPK2 quantified by measuring the phosphorylation of the substrate Ulight- […]
-amide (MBP) using a human recombinant enzyme and the […]
mixture is incubated for 30 min at room temperature. […] After 60 more min, the fluorescence transfer is measured at λex=337 nm, λem=620 nm and λem=665 nm using a microplate reader (Envision, Perkin Elmer). The enzyme activity is determined by dividing the signal measured at λem=665 nm by that measured at λem=620 nm (ratio). The results are expressed as a percent inhibition of the control enzyme activity. […]

T1 sequence (Q9P1W9 whole entry): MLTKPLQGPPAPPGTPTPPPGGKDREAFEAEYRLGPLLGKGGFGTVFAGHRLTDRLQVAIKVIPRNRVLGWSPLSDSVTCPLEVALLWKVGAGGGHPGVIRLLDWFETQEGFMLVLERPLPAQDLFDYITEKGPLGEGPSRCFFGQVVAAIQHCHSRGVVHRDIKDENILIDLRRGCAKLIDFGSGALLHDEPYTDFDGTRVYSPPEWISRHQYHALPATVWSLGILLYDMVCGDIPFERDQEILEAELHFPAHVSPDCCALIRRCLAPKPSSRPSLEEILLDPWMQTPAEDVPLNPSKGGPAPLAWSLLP
T2 sequence (Q9H2X6 whole entry): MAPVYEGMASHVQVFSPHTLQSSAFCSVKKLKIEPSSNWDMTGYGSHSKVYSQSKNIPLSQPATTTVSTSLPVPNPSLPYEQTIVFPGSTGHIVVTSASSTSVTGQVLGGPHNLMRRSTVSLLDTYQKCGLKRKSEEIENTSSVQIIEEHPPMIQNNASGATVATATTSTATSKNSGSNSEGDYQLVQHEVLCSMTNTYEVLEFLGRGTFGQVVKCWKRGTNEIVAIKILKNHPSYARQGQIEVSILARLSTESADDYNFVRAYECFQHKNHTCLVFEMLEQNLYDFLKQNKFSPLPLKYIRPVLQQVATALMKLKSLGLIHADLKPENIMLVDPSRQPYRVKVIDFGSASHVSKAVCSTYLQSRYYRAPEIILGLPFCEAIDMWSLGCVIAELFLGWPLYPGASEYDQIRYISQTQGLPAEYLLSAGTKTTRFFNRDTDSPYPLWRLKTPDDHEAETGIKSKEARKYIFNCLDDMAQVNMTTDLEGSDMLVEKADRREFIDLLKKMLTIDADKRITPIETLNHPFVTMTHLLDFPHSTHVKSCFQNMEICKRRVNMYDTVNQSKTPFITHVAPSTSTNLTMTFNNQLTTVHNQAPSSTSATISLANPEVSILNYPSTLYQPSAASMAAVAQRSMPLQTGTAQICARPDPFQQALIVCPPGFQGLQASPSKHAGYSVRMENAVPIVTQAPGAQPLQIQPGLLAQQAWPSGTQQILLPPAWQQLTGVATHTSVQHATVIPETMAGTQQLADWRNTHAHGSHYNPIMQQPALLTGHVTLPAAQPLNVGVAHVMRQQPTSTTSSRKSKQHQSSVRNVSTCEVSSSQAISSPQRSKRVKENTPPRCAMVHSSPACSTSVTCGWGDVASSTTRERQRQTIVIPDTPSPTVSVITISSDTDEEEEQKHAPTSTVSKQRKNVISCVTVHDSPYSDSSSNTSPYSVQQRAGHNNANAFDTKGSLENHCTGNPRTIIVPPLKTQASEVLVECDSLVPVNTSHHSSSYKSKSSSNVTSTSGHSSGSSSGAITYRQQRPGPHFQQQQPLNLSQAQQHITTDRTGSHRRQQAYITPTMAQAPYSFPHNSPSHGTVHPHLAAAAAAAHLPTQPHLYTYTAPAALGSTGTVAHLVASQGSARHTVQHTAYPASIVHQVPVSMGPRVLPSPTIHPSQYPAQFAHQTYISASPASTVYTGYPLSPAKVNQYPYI

CNCc1ccc(-c2[nH]c3cc(F)cc4c3c2CCNC4=O)cc1 [rucaparib] showed a pIC50 (human PIM2 kinase) of 5.11 and a pIC50 (human HIPK2 kinase) of 5.36.
